Series [1] deals with L. major and L. infantum amastigotes. Description: Anti-amastigote assay, stated across the three strains. The format is cell-based, Leishmania infantum, Leishmania major. On the procedure: (§1) THP-1-derived macrophages (5 × 10^4/well) were seeded in each 8-well Labtek slides (Thermo Scientific). Adherent macrophages were obtained as described above, then infected with stationary phase promastigotes of each strain at a ratio 10:1 (10 parasites/macrophage) in RPMI medium containing penicillin (100 U/mL) and streptomycin (100 μg/mL) with 10% fetal bovine serum (Gibco, Brazil) at 37°C in 5% CO2 for 24 h. […] Non-infected control cells were incubated in a supplemented RPMI medium containing 1% DMSO. After 72h of incubation, cells were fixed and stained using May-Grunwald-Giemsa staining with RAL 555 Kit (RAL DIAGNOSTICS, France), following the manufacturer’s instructions. The percentage of infected cells and the total number of internalized parasites per 100 macrophages were determined under immersion oil (magnification of 1000X) using light microscopy. The percentage of amastigotes viability was expressed as the percentage of total number of internalized parasites within treated cells relative to the total number of internalized parasites within control cells treated with 1% DMSO, and calculated as follows:
(§2) Relative amastigote viability (%) = [(number of amastigotes/100 treated cells)/(number of amastigotes/100 treated cells with1% DMSO)] * 100
(§3) The relative percentage of amastigote viability was evaluated to calculate half inhibitory concentrations (IC50). The mean IC50 values were determined by plotting the curves of the logarithm of compound concentrations versus the relative amastigote viability of three independent experiments performed in two technical replicates for each compound fitted into a nonlinear regression model, using GraphPad Prism version 8.0.1. Selectivity Index (SI) values were calculated as the ratio between cytotoxicity and activity against amastigotes and determined for each compound as follows: SI= CC50/IC50.

Series [2] deals with THP-1-derived macrophages. Nature of the series: Cytotoxicity assay towards THP-1-derived macrophages (MTT). It counts as cell-based, human. How it is done:
(§4) Louis, MO, USA). The PMA-treated THP-1 cells were maintained in this condition for 24 h, followed by a 24 h of rest period after the removal of PMA. […] The cytotoxicity towards THP-1-derived macrophages was assessed after 24, 48 and 72 hours of incubation by MTT assay as described above. […] The percentage of viable cells was calculated from the Optical Density at 570 nm as follows: […]

Assay in series [3]: as above
It counts as cell-based, human. The note with it: human, THP-1-derived macrophages (PMA-differentiated); for CC50 at 72 h: 72 h of treatment, uninfected cells, MTT. On the procedure: as §4

The subject of series [4] is L. infantum Drep-14 intracellular amastigotes. Nature of the series: Anti-amastigote assay in THP-1-derived macrophages, L. infantum Drep-14. The note with it: for IC50: Leishmania infantum, Macrophage, Drep-14, intramacrophage, 72 h. The format is cell-based, Leishmania infantum. On the procedure:
as §1, §2, §3

Series [5] relates to L. infantum Drep-14 promastigotes. Nature of the series: microbe, parasite or virus in culture. It counts as cell-based. The note with it: Leishmania infantum, 72 h. An excerpt: (§5) Three Tunisian laboratory strains already described ([Oualha et al., 2019]), originally isolated from distinct clinical manifestations were used in this study: (i) L. infantum LV50 MHOM/TN/94/LV50) strain originating from a bone marrow of a visceral leishmaniasis patient, (ii) L. infantum Drep-14 (MHOM/TN/96/Drep-14) strain isolated from a lesion of a sporadic cutaneous leishmaniasis patient and (iii) L. major Empa-12 (MHOM/TN/2012/Empa-12) strain isolated from a zoonotic cutaneous leishmaniasis patient. Stocks of these parasites obtained after passage through BALB/c mice were used as previously described ([Oualha et al., 2019]). Thawed cryopreserved parasites were cultured at 22°C in RPMI-1640/Glutamax medium (Gibco BRL, Germany) containing penicillin (100 U/mL) and streptomycin (100 μg/mL) supplemented with 10% heat-inactivated Fetal Bovine Serum (FBS) (Gibco BRL, Germany).
(§6) The effect of the selected compounds on the viability of Leishmania promastigotes was evaluated by a colorimetric MTT (3-(4,5-dimethylthiazol-2yl)-2,5-diphenyl tetrazolium bromide) assay. It consists in the reduction of tetrazolium salt to a […] crystal (blue formazan) by the succinate dehydrogenase activity of mitochondria in living cells, which can be quantified by spectrophotometry. Briefly, 90 μL of promastigotes (5 × 10^5 parasites/well) harvested from the stationary growth phase of each strain were added to a 96-well culture plate and incubated with 10 μL of a range of serial dilutions of the selected compounds in technical replicates (final concentration of 1% DMSO per well) ([Ioset et al., 2009]; [Harigua-Souiai et al., 2018]). […] After 72h of incubation at 22°C, 25 μl of MTT solution (5 mg/mL) was added to each well and incubated at 22°C for 4h. Then, 150 μl of DMSO was added to each well to dissolve the blue formazan and the optical density (OD) was measured at 570 nm with a microplate reader ([…], Labsystems). Promastigotes incubated in complete medium containing 1% DMSO were used as negative control. The standard anti-Leishmania drug, Amphotericin B was used as a positive control. All experiments were performed in two technical replicates and repeated three times in independent experiments. The mean percentage of promastigotes viability was calculated from the Optical Density at 570 nm as follows:
(§7) Promastigote viability (%)= [(ODcompound− ODblank)/(ODnegative control −ODblank)]*100
(§8) Results were expressed as the mean value of the percentage of promastigotes viability ± standard deviation (SD).

Series [6] has as its system L. major Empa-12 intracellular amastigotes. Description: Anti-amastigote assay in THP-1-derived macrophages, L. major Empa-12. As to conditions: for Selectivity Index (SI): CC50 THP-1 / IC50 amastigotes Empa-12, 72 h; for IC50: Leishmania major, Macrophage, Empa-12, intramacrophage, 72 h. The format is cell-based, Leishmania major. On the procedure:
as §1, §2, §3

For series [7], the system named is L. infantum LV50 promastigotes. Nature of the series: MTT-based promastigote viability assay, L. infantum LV50. The note with it: Leishmania infantum, LV50, 72 h, MTT. The format is cell-based.
Description: as §5, §6, §7, §8

For series [8], the system named is L. infantum (LV50 and Drep-14) and L. major (Empa-12) promastigotes. Nature of the series: MTT promastigote viability assay, stated across the three strains. The format is cell-based, Leishmania infantum, Leishmania major. As to conditions: 72 h; for IC50: Leishmania infantum, LV50, Drep-14, Empa-12, MTT, read-out: Promastigotes IC50, span over the three strains; for Effect on promastigote viability: three strains, at the tested concentrations.
Description: as §5, §6, §7, §8
For orientation: Tetrazolium assays rely on reduction of a dye to a coloured formazan, in cell work by metabolically active cells.

Series [9] has as its system L. major Empa-12 promastigotes. Description: MTT-based promastigote viability assay, L. major Empa-12. It counts as cell-based. The note with it: Leishmania major, Empa-12, 72 h, MTT.
Description: as §5, §6, §7, §8

The subject of series [10] is Leishmania (Viannia) braziliensis. Further details: method as in Cazorla et al., 2004. The note with it: hamsters infected with Leishmania (Viannia) braziliensis, versus Glucantime; ref Cazorla et al., 2004; cited from earlier work.
The test system of series [11] is L. infantum LV50 intracellular amastigotes. Description: Anti-amastigote assay in THP-1-derived macrophages, L. infantum LV50. As to conditions: for Selectivity Index (SI): CC50 THP-1 / IC50 amastigotes LV50, 72 h; for IC50: Leishmania infantum, Macrophage, LV50, intramacrophage, 72 h. The format is cell-based, Leishmania infantum. How it is done:
as §1, §2, §3

Series [12] deals with L. infantum. Also on record: method as in Cavalera et al., 2021. As to conditions: dogs with leishmaniasis and chronic kidney disease; ref Cavalera et al., 2021; cited from earlier work.
Series [13] deals with L. infantum. Also on record: method as in Gómez-Ochoa et al., 2009. The note with it: 98 dogs naturally infected with L. infantum, 12-months follow-up; ref Gómez-Ochoa et al., 2009; cited from earlier work.
Series [14] relates to multiple strains of L. donovani. Also on record: method as in Pandharkar et al., 2014. The note with it: ref Pandharkar et al., 2014, read-out: IC50 in vitro; cited from earlier work.
The mark [15] stands for this setting: read-out: THP-1-derived macrophages CC50.
The mark [16] stands for this setting: read-out: THP-1-derived macrophages CC50 (in brackets) (converted).
Setting [17] is: read-out: Amastigotes IC50 (in brackets) (converted).
The mark [18] stands for this setting: read-out: Promastigotes IC50 (in brackets).
The mark [19] stands for this setting: read-out: Promastigotes IC50 (in brackets) (converted).

For orientation: CC50 means the concentration at which the toxic effect on the cells reaches its halfway point. For orientation: IC50 means the concentration that inhibits the measured activity by half. One may read the viability as the share of living cells, or the viability signal relative to a control.

Values after ≈ are worked out from the molar mass of the structure shown. Read-outs that look alike come from different tables or passages of the source.

For `CCCCOc1cc(C(=O)NCCN(CC)CC)c2ccccc2n1` [Dibucaine], the “Selectivity index (SI), span over strains” value in series [1] (CC50/IC50 amastigotes) was over 25. Also, the “Concentration at which cytotoxic effects start” value (“Concentration” for short) in series [2] (24 h of incubation) worked out at 30000 ng/mL; in [2] (48 h of incubation), 30000 ng/mL; in series [2] (72 h of incubation), 15000 ng/mL. Besides, the CC50 at 72 h was 22.7 ± 1.08 µg/mL in [3] (setting [15]) and 59.7 µM in [3] (setting [16]). Moreover, the IC50 in series [4] (read-out: Amastigotes IC50) was 0.9 ± 0.03 µg/mL; in series [4] (setting [17]), 2.37 µM; in series [5] (read-out: Promastigotes IC50), 1.05 ± 0.06 µg/mL; in series [5] (setting [18]), 2.76 µM; in series [6] (read-out: Amastigotes IC50) it was 0.83 ± 0.05 µg/mL; in series [6] (setting [17]), 2.19 µM. Moreover, the IC50 was 0.58 ± 0.02 µg/mL in series [7] (read-out: Promastigotes IC50); 1.53 µM in [7] (setting [19]); 0.58 to 1.05 µg/mL (≈ 1.69 to 3.06 µM) in [8]; 1.04 ± 0.09 µg/mL in series [9] (read-out: Promastigotes IC50); 2.74 µM in series [9] (setting [19]); 0.71 ± 0.09 µg/mL in series [11] (read-out: Amastigotes IC50). Moreover, the 50% inhibitory concentration (IC50) in [11] (setting [17]) is 1.87 µM. The results for the “Selectivity Index (SI)” value in series [6] and in series [11] were 27.35 and 31.97, respectively. Besides, the “Effect on promastigote viability” value in [8] is reported as “dose-dependent decrease of parasite viability”. For the same compound, the “Efficacy of intralesional treatment in hamsters” value in [10] is “comparable to the standard dosages of Glucantime”.
Consider `O=c1[nH]c2ccccc2n1CCCN1CCC(n2c(=O)[nH]c3cc(Cl)ccc32)CC1` [Domperidone], for which the “Concentration” value in [2] (24 h of incubation), in series [2] (48 h of incubation) and in series [2] (72 h of incubation) was 25000 ng/mL throughout. Further, the CC50 at 72 h in series [3] (setting [15]) was 26.5 ± 2.6 µg/mL; in series [3] (setting [16]) it was 62.4 µM. In addition, the “Serum markers in dogs” value in the series with L. infantum [12] was “improve serum creatinine and to reduce anti-L. infantum antibody titers, globulins, gamma globulins, and C-reactive protein (CRP)”. In the series on L. infantum [13], the “Clinical outcome in dogs” value was “effectively reduced clinical symptoms and antibody levels”. In series [8], the “Effect on promastigote viability” value was “dose-dependent decrease of parasite viability”.
As to `OC(Cn1cncn1)(Cn1cncn1)c1ccc(F)cc1F` [Fluconazole], the IC50 in series [14] was 140 ± 50 µM.
For `CCCNC(C)C(=O)Nc1ccccc1C` (stereo not drawn) [Prilocaine], the IC50 in series [1] (72 h, LV50, Drep-14, Empa-12, intramacrophage, 72 h, read-out: Amastigotes IC50, span over the three strains) is 13.8 to 66.8 µg/mL (≈ 62.8 to 303 µM); in series [4] (read-out: Amastigotes IC50) it was 30.4 ± 2.3 µg/mL; in series [4] (setting [17]), 138 µM; in series [5] (read-out: Promastigotes IC50) it was 34.8 ± 3.22 µg/mL; in [5] (setting [18]), 158 µM; in series [6] (read-out: Amastigotes IC50), 30.7 ± 2.2 µg/mL. Also, the IC50 was 139 µM in series [6] (setting [17]); 45.8 ± 2.46 µg/mL in [7] (read-out: Promastigotes IC50); 208 µM in series [7] (setting [19]); 33.1 to 45.8 µg/mL (≈ 150 to 208 µM) in series [8]; 33.1 ± 2.3 µg/mL in [9] (read-out: Promastigotes IC50); 150 µM in [9] (setting [19]). The IC50 in series [11] (read-out: Amastigotes IC50) is 26.2 ± 3.14 µg/mL; in series [11] (setting [17]), 119 µM. Besides, the “Cytotoxicity on THP-1-derived macrophages” value in series [2] (24, 48, 72 h) is “no significant cytotoxicity”. For the same compound, the “Concentration” value in series [2] (72 h of incubation) turned out to be 400000 ng/mL. Moreover, the CC50 at 72 h in [3] (setting [15]) is over 200 µg/mL; in series [3] (setting [16]), over 1820 µM. In [3] (at 200 µg/mL, 72 h, read-out: Macrophage viability), the viability at 72 h, 200 µg/mL lay in the range of 90 to 100%. Besides, the viability in series [3] (at the IC50 value on the promastigotes, read-out: Macrophage viability) lay within 90 to 100%. The “Selectivity Index (SI)” value is given as over 13.14 in [4] (CC50 THP-1 / IC50 amastigotes Drep-14, 72 h); over 13.02 in series [6]; over 15.25 in series [11]. In [8], the “Effect on promastigote viability” value is “dose-dependent decrease of parasite viability”.
For the compound `CCN(CC)CCOC(=O)c1ccc(N)cc1` [Procaine], in series [10], the “Efficacy of intralesional treatment in hamsters” value is “lower efficacy”.

The values are drawn from article PMC11464777, “Approved drugs successfully repurposed against Leishmania based on machine learning predictions” (Frontiers in Cellular and Infection Microbiology, 2024).
